The text below walks through data of patent US11992494B2, “Cyclopentathiophene carboxamide derivatives as platelet activating factor receptor antagonists” (Boehringer Ingelheim International GmbH, priority 2021, dated 2024).

The first experiment deals with T1, PAFR (Homo sapiens, UniProt P25105).
Assay: not given
To be noted: PAFR binding, Miyazawa et al.; cited from earlier work.
Target sequence in this assay (P25105 whole entry, species assumed): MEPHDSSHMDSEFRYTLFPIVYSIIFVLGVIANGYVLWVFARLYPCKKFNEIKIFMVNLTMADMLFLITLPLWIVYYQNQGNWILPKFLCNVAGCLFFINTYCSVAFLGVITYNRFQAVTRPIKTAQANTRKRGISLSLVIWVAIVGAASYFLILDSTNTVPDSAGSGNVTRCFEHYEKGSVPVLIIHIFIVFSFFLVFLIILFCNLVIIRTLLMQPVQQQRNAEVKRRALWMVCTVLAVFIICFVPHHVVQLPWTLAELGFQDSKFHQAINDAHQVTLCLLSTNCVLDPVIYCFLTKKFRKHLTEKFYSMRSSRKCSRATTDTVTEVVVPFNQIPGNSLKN
Regarding `C#CCCOC(=O)N1CCc2c(sc3c2C(c2ccccc2Cl)=NCc2nnc(C)n2-3)C1` [compound 18 of Miyazawa et al.], the IC50 (in general, the point on the concentration scale where inhibition reaches its midpoint) was 3.8 nM.
For `Cc1nnc2n1-c1sc3c(c1C(c1ccccc1Cl)=NC2C)CCN(C(=O)OC(C)(C)C#N)C3` (single isomer, unassigned) [compound 34 of Miyazawa et al. (+) isomer], the concentration for half-maximal inhibition (IC50) was 3.1 nM.
Take `C#CCCOC(=O)N1CCc2c(sc3c2C(c2ccccc2Cl)=NC(CC)(CC)c2nnc(C)n2-3)C1` [compound 25 of Miyazawa et al.]: the half-maximal inhibitory concentration (IC50) is 290 nM.

The target in a further experiment is T1, PAFR. The experiment is described as follows: cellular HTRF IP1 assay: inhibition of PAFR activation by PAF C-16 ligand (endpoint assay). As to conditions: HEK293 cells overexpressing human PAFR; PAF ligand 11 nM; Table 2. More on the design: expressed in transfected cells; host or cells: HEK293. Format: cell-based. In outline: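 HEK293 cells overexpressing human PAFR were preincubated with compound (1% DMSO) 90 min at 37°C, then challenged with 11 nM PAF C-16 for 60 min in HBSS/20 mM HEPES pH 7.4/50 mM LiCl/0.1% BSA. IP1 accumulation read by HTRF (665/620 nm emission).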
For orientation: In TR-FRET formats the signal depends on donor and acceptor labels being close together.
Target sequence in this assay (P25105 whole entry): as the sequence (P25105 whole entry, species assumed) above
The molecule `Cc1nnc2n1-c1sc3c(c1C(c1ccccc1Cl)=NC21CC1)C[C@H](C(=O)N[C@H]1CCCOC1)C3` [Example 29] displayed an IC50 of 8.4 nM.
Same read-out and setting: as for `Cc1nnc2n1-c1sc3c(c1C(c1ccccc1Cl)=NC21CC1)C[C@H](C(=O)N[C@H]1C[C@H](S(C)(=O)=O)C1)C3` [Example 113], the figure is 28 nM; as for `Cc1nnc2n1-c1sc3c(c1C(c1ccccc1Cl)=NC21CC1)C[C@H](C(=O)NC1CC1)C3` [Example 74], 5.5 nM; as for `Cc1nnc2n1-c1sc3c(c1C(c1ccccc1Cl)=NC21CC1)C[C@H](C(=O)N1CCC(F)(F)C1)C3` [Example 105, (13′S)-9′-(2-chlorophenyl)-13′-(3,3-difluoro-pyrrolidine-1-carbonyl)-3′-methyl-16′-thia-2′,4′,5′,8′-tetraazaspiro[cyclopropane-1,7′-tetracyclo[8.6.0.0^2,6.0^11,15]hexadecane]-1′(10′),3′,5′,8′,11′(15′)-pentaene], 3.6 nM.
On the same count and under the same terms, for `Cc1nnc2n1-c1sc3c(c1C(c1ccccc1O)=NC21CC1)C[C@H](C(=O)N1CCOCC1)C3` [Example 9, 2-[(13′S)-3′-methyl-13′-(morpholine-4-carbonyl)-16′-thia-2′,4′,5′,8′-tetraazaspiro[cyclopropane-1,7′-tetracyclo[8.6.0.0^2,6.0^11,15]hexadecane]-1′(10′),3′,5′,8′,11′(15′)-pentaen-9′-yl]phenol] the value was 52 nM; for `Cc1nnc2n1-c1sc3c(c1C(c1ccccc1Cl)=NC21CC1)C[C@H](C(=O)N[C@H]1C[C@H](C#N)C1)C3` [Example 49], 7.7 nM; for `Cc1nnc2n1-c1sc3c(c1C(c1ccccc1Cl)=NC21CC1)C[C@H](C(=O)N[C@@H]1C[C@H]1c1ccccc1)C3` [Example 60], 1.3 nM.
The same measure, in the same setting: for `Cc1nnc2n1-c1sc3c(c1C(c1ccccc1Cl)=NC21CC1)C[C@H](C(=O)NC1(c2ccccc2)CCOCC1)C3` [Example 96] the value was 6 nM; for `Cc1nnc2n1-c1sc3c(c1C(c1ccccc1Cl)=NC21CC1)C[C@H](C(=O)NC1CCc2ncccc2C1)C3` (some centres unmarked) [Example 97], 8.9 nM.
`Cc1nnc2n1-c1sc3c(c1C(c1ccccc1Cl)=NC21CC1)C[C@H](C(=O)N(C)[C@H]1CCCC[C@H]1O)C3` [Example 102] yielded an IC50 of 6.9 nM.
Same read-out and setting: as for `Cc1nnc2n1-c1sc3c(c1C(c1cc(Br)ccc1Cl)=NC21CC1)C[C@H](C(=O)N1CCOCC1)C3` [Example 4, (13′S)-9′-(5-bromo-2-chlorophenyl)-3′-methyl-13′-(morpholine-4-carbonyl)-16′-thia-2′,4′,5′,8′-tetraazaspiro[cyclopropane-1,7′-tetracyclo[8.6.0.0^2,6.0^11,15]hexadecane]-1′(10′)3′,5′,8′,11′(15′)-pentaene], the figure is 26 nM; as for `Cc1nnc2n1-c1sc3c(c1C(c1ccccc1Cl)=NC21CC1)C[C@H](C(=O)NC1COc2ccccc21)C3` (some centres unmarked) [Example 55], 1.4 nM.
Still for that read-out and setting: as for `Cc1nnc2n1-c1sc3c(c1C(c1cc(N)ccc1Cl)=NC21CC1)C[C@H](C(=O)N1CCOCC1)C3` [Example 6, 4-chloro-3-[(13′S)-3′-methyl-13′-(morpholine-4-carbonyl)-16′-thia-2′,4′,5′,8′-tetraazaspiro[cyclopropane-1,7′-tetracyclo[8.6.0.0^2,6.0^11,15]hexadecane]-1′(10′),3′,5′,8′,11′(15′)-pentaen-9′-yl]aniline], the figure is 25 nM; as for `Cc1nnc2n1-c1sc3c(c1C(c1ccccc1Cl)=NC21CC1)C[C@H](C(=O)N(C)C1CCOCC1)C3` [Example 37], 6.6 nM.
The same measure, in the same setting: for `Cc1nnc2n1-c1sc3c(c1C(c1ccccc1Cl)=NC21CC1)C[C@H](C(=O)N[C@@H]1C[C@H]1C)C3` [Example 107] the value was 2.7 nM.
Regarding `CC[C@@H]1C[C@H]2O[C@@H]1C[C@H]2NC(=O)[C@@H]1Cc2sc3c(c2C1)C(c1ccccc1Cl)=NC1(CC1)c1nnc(C)n1-3` [Example 101], the IC50 worked out at 6 nM.
On the same count and under the same terms, as for `Cc1nnc2n1-c1sc3c(c1C(c1ccccc1Cl)=NC21CC1)C[C@H](C(=O)NC1CCC2(CC1)CC2)C3` [Example 69], the figure is 1.5 nM; as for `Cc1nnc2n1-c1sc3c(c1C(c1ccccc1Cl)=NC21CC1)C[C@H](C(=O)NC1CCCS(=O)(=O)C1)C3` (stereo partly drawn) [Example 121, (13′S)-9′-(2-chlorophenyl)-N-(1,1-dioxo-1lambda6-thian-3-yl)-3′-methyl-16′-thia-2′,4′,5′,8′-tetraazaspiro[cyclopropane-1,7′-tetra-cyclo[8.6.0.0^2,6.0^11,15]hexadecane]-1′(10′),3′,5′,8′,11′(15′)-pentaene-13′-carboxamide], 30 nM.
Same read-out and setting: for `Cc1nnc2n1-c1sc3c(c1C(c1ccccc1Cl)=NC21CC1)C[C@H](C(=O)N(C)[C@H]1c2ccccc2CC[C@@H]1O)C3` [Example 86] the value was 4 nM; for `Cc1nnc2n1-c1sc3c(c1C(c1ccccc1Cl)=NC21CC1)C[C@H](C(=O)N(C)[C@H]1CCN(S(C)(=O)=O)C1)C3` [Example 111, (13′S)-9′-(2-chlorophenyl)-N-[(3S)-1-methanesulfonylpyrrolidin-3-yl]-N,3′-dimethyl-16′-thia-2′,4′,5′,8′-tetraazaspiro[cyclopropane-1,7′-tetracyclo[8.6.0.0^2,^6.0^11,15]hexadecane]-1′(10′),3′,5′,8′,11′(15′)-pentaene-13′-carboxamide], 24 nM; for `Cc1nnc2n1-c1sc3c(c1C(c1ccccc1Cl)=NC21CC1)C[C@H](C(=O)N1CC(C)(C)C1)C3` [Example 65], 2.8 nM.
Regarding `Cc1nnc2n1-c1sc3c(c1C(c1ccccc1Cl)=NC21CC1)C[C@H](C(=O)N[C@H]1COC[C@H]1C)C3` [Example 28], the IC50 was determined as 6.8 nM.
Still for that read-out and setting: as for `Cc1nnc2n1-c1sc3c(c1C(c1ccccc1Cl)=NC21CC1)C[C@H](C(=O)N[C@@H]1COC[C@@H]1C)C3` [Example 30], the figure is 7.2 nM.
Consider `CCn1ncc2c1CC[C@@H](NC(=O)[C@@H]1Cc3sc4c(c3C1)C(c1ccccc1Cl)=NC1(CC1)c1nnc(C)n1-4)C2` [Example 99], for which inhibition was half-maximal at 8.1 nM (IC50).
On the same count and under the same terms, as for `Cc1ccccc1C1=NC2(CC2)c2nnc(C)n2-c2sc3c(c21)C[C@H](C(=O)N1CCOCC1)C3` [Example 8, (13′S)-3′-methyl-9′-(2-methylphenyl)-13′-(morpholine-4-carbonyl)-16′-thia-2′,4′,5′,8′-tetraazaspiro[cyclopropane-1,7′-tetracyclo[8.6.0.0^2,6.0^11,15]hexadecane]-1′(10′),3′,5′,8′,11′(15′)-pentaene], the figure is 8.4 nM; as for `Cc1nnc2n1-c1sc3c(c1C(c1ccccc1Cl)=NC21CC1)C[C@H](C(=O)N[C@H]1CCC(F)(F)C1)C3` [Example 24], 2 nM.
On the same count and under the same terms, for `Cc1nnc2n1-c1sc3c(c1C(c1ccccc1Cl)=NC21CC1)C[C@H](C(=O)N1C[C@@H](C)O[C@@H](C)C1)C3` [Example 13] the value was 4.8 nM.
`Cc1nnc2n1-c1sc3c(c1C(c1ccccc1Cl)=NC21CC1)C[C@H](C(=O)N[C@@H]1CCOC1)C3` [Example 95]: half-maximal inhibition (IC50) was put at 17 nM.
The molecule `CC(=O)N1CCC(N(C)C(=O)[C@@H]2Cc3sc4c(c3C2)C(c2ccccc2Cl)=NC2(CC2)c2nnc(C)n2-4)CC1` [Example 73] displayed a concentration for half-maximal inhibition (IC50) of 21 nM.
On the same count and under the same terms, for `Cc1nnc2n1-c1sc3c(c1C(c1ccccc1Cl)=NC21CC1)C[C@H](C(=O)NC1CC1(C)C)C3` (some centres unmarked) [Example 40] the value was 1.9 nM; for `Cc1cc2n(n1)CC(NC(=O)[C@@H]1Cc3sc4c(c3C1)C(c1ccccc1Cl)=NC1(CC1)c1nnc(C)n1-4)CC2` (some centres unmarked) [Example 23], 9.9 nM; for `Cc1nnc2n1-c1sc3c(c1C(c1ccccc1)=NC21CC1)C[C@H](C(=O)N1CCOCC1)C3` [Example 120, (13′S)-3′-methyl-13′-(morpholine-4-carbonyl)-9′-phenyl-16′-thia-2′,4′,5′,8′-tetraazaspiro[cyclopropane-1,7′-tetracyclo[8.6.0.0^2,6.0^11,15]hexadecane]-1′(10′),3′,5′,8′,11′(15′)-pentaene], 14 nM.
Regarding `CO[C@@H]1CCCCC1N(C)C(=O)[C@@H]1Cc2sc3c(c2C1)C(c1ccccc1Cl)=NC1(CC1)c1nnc(C)n1-3` (some centres unmarked) [Example 84], the IC50 came out at 2.3 nM.

Staying with this experiment, now noted: S-bepafant and its methylated derivatives in the above-mentioned assay.
In turn, `Cc1nnc2n1-c1sc3c(c1C(c1ccccc1Cl)=N[C@H]2C)C[C@H](C(=O)N1CCOCC1)C3` [comparative example 1a, reference compound] had a half-inhibitory concentration (IC50) of 6.9 nM.

Staying with this experiment, now noted: dedicated head-to-head comparison assay run: cyclopropylene vs di-methyl / cyclobutylene analogues.
Molecule `Cc1nnc2n1-c1sc3c(c1C(c1ccccc1Cl)=NC2(C)C)C[C@H](C(=O)NC1CCOCC1)C3` [reference compound] registered a half-inhibitory concentration (IC50) of 65 nM.
With `CCCNC(=O)[C@@H]1Cc2sc3c(c2C1)C(c1ccccc1Cl)=NC(C)(C)c1nnc(C)n1-3` [reference compound], half-maximal inhibition (IC50) was put at 29 nM.
The same measure, in the same setting: for `Cc1nnc2n1-c1sc3c(c1C(c1ccccc1Cl)=NC2(C)C)C[C@H](C(=O)N(C)[C@H]1CC[C@H](O)CC1)C3` [reference compound] the value was 87 nM.
In turn, `Cc1nnc2n1-c1sc3c(c1C(c1ccccc1Cl)=NC21CCC1)C[C@H](C(=O)N1CCOCC1)C3` [comparative example 2, reference compound] returned a half-inhibitory concentration (IC50) of 59 nM.
